Among the data in patent publication US11136329B2, “JAK inhibitors” (Vimalan Biosciences, Inc., priority 2019, dated 2021) are IC50 values, retold here.

The structures appear in SMILES notation.

What all share (format): biochemical
For test [1], the target named is JAK3 (Homo sapiens (Human), UniProt P52333). The experiment in a line: JAK/TYK2 assay (Kinase Glo luminescence), JAK3. The following applies: 1.5 nM enzyme, 2 uM ATP, 4 uM pEY, 1 hr. The method, boiled down:
(§1)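 Kinase activity read as Kinase Glo luminescence (inversely related to activity) after enzyme and substrate reacted with compound at 25° C. for 1-2 hours in 20 mM HEPES, 10 mM MgCl2, 0.01% Tween, 1 mM DTT, pH 7.5. Test compound final concentrations spanned 10000 to 0.51 nM in 3-fold steps.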
(In Kinase-Glo more light means more ATP remaining.)

The target in test [2] is JAK1 (Homo sapiens (Human), UniProt P23458). The experiment in a line: JAK/TYK2 assay (Kinase Glo luminescence), JAK1. The following applies: 7.5 nM enzyme, 2 uM ATP, 30 uM IRS-1, 1 hr. In outline:
as §1

Test [3] concerns the target JAK2 (Homo sapiens (Human), UniProt O60674). The experiment in a line: JAK/TYK2 assay (Kinase Glo luminescence), JAK2. The following applies: 0.8 nM enzyme, 2 uM ATP, 4 uM pEY, 1 hr. In outline: as §1
The target of test [4] is TYK2 (Homo sapiens (Human), UniProt P29597). The experiment in a line: JAK/TYK2 assay (Kinase Glo luminescence), TYK2. The following applies: 9 nM enzyme, 2 uM ATP, 30 uM IRS-1, 1 hr. The method, boiled down:
as §1

Chain of JAK2 (O60674 whole entry, species assumed): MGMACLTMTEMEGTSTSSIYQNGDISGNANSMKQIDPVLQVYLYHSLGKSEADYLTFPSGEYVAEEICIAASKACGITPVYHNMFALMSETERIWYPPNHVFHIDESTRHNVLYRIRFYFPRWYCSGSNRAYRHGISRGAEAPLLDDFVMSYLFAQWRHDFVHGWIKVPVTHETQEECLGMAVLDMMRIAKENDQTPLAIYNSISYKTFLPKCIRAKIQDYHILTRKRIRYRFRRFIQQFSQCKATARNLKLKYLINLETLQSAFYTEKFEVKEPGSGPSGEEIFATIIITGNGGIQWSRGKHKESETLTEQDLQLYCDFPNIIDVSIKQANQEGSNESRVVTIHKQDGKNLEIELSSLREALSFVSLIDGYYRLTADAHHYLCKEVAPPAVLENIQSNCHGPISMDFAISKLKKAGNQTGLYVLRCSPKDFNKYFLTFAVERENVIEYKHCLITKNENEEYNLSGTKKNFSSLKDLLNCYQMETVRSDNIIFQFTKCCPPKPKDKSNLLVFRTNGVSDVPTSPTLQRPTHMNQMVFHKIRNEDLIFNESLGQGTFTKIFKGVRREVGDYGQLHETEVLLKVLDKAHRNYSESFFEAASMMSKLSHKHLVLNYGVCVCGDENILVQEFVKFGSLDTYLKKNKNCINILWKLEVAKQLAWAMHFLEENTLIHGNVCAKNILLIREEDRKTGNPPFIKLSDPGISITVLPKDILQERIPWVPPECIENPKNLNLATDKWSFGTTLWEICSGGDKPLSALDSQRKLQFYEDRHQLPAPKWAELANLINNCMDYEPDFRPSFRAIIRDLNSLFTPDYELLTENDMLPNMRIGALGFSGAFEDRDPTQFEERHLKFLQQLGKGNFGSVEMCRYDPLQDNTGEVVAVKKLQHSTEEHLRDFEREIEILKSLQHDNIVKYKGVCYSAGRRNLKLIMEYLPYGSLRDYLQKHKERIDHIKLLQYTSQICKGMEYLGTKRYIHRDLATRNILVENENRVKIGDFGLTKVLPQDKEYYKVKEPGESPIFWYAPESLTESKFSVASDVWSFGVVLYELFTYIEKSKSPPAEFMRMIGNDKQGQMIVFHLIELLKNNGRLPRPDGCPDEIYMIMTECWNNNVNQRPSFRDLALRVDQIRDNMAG
Chain of TYK2 (P29597 whole entry, species assumed): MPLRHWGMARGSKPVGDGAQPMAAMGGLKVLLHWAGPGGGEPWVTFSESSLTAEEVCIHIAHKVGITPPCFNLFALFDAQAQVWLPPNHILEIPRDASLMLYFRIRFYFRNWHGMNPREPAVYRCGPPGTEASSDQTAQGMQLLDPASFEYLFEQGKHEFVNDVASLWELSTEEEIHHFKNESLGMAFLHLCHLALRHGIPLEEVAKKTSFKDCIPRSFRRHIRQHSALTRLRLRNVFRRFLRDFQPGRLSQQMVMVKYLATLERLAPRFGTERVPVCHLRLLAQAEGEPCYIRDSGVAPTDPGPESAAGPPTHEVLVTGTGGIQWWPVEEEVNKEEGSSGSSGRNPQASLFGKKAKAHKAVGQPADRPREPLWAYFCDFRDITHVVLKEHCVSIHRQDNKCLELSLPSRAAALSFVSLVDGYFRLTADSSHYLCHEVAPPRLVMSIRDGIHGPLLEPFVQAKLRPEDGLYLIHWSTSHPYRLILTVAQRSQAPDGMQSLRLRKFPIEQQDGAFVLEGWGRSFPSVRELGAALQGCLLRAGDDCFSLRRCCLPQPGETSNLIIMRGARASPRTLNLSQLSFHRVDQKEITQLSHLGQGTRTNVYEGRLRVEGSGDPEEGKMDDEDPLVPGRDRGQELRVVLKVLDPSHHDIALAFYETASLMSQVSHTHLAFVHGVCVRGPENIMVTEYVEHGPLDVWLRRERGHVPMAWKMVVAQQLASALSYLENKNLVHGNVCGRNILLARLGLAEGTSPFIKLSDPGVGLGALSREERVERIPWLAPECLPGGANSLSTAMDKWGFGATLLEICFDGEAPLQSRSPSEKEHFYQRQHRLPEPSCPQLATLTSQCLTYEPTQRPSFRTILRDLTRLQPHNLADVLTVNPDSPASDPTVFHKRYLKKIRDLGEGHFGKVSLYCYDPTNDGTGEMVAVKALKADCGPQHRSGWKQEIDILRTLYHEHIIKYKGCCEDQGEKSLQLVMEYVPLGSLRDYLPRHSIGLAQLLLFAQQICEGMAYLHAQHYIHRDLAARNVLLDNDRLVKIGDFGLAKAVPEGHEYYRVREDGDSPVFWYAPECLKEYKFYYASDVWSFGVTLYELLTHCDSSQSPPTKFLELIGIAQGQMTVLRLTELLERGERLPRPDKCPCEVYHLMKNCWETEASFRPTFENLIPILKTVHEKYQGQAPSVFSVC
Chain of JAK3 (P52333 whole entry, species assumed): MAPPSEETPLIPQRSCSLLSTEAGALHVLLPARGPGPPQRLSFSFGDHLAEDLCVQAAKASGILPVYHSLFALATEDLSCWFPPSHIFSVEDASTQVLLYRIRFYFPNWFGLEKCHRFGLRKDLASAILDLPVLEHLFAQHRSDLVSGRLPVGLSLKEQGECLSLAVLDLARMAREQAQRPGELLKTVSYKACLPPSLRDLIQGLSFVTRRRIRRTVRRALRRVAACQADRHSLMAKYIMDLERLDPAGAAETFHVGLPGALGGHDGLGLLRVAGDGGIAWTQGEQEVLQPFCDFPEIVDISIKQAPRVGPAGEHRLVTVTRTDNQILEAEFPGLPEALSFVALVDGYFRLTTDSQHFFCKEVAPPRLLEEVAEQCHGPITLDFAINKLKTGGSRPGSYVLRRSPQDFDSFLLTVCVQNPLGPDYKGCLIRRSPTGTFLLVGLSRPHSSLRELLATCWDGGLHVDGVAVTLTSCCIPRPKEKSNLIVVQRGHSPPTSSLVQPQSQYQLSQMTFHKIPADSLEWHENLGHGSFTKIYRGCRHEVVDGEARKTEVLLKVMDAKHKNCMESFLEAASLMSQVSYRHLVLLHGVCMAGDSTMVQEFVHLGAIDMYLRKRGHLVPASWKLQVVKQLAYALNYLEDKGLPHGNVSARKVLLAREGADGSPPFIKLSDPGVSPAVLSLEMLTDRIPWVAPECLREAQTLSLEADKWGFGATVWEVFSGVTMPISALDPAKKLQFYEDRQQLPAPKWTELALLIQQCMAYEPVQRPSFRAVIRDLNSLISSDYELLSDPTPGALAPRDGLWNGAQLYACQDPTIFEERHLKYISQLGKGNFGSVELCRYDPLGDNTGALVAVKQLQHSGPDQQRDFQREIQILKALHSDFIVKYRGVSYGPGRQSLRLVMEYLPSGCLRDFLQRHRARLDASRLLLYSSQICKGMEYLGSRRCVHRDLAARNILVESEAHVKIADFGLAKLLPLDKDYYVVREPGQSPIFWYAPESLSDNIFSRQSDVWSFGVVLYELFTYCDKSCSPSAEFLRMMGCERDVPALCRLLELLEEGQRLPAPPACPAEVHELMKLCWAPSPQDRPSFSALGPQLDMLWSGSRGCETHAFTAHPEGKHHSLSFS
Chain of JAK1 (P23458 whole entry, species assumed): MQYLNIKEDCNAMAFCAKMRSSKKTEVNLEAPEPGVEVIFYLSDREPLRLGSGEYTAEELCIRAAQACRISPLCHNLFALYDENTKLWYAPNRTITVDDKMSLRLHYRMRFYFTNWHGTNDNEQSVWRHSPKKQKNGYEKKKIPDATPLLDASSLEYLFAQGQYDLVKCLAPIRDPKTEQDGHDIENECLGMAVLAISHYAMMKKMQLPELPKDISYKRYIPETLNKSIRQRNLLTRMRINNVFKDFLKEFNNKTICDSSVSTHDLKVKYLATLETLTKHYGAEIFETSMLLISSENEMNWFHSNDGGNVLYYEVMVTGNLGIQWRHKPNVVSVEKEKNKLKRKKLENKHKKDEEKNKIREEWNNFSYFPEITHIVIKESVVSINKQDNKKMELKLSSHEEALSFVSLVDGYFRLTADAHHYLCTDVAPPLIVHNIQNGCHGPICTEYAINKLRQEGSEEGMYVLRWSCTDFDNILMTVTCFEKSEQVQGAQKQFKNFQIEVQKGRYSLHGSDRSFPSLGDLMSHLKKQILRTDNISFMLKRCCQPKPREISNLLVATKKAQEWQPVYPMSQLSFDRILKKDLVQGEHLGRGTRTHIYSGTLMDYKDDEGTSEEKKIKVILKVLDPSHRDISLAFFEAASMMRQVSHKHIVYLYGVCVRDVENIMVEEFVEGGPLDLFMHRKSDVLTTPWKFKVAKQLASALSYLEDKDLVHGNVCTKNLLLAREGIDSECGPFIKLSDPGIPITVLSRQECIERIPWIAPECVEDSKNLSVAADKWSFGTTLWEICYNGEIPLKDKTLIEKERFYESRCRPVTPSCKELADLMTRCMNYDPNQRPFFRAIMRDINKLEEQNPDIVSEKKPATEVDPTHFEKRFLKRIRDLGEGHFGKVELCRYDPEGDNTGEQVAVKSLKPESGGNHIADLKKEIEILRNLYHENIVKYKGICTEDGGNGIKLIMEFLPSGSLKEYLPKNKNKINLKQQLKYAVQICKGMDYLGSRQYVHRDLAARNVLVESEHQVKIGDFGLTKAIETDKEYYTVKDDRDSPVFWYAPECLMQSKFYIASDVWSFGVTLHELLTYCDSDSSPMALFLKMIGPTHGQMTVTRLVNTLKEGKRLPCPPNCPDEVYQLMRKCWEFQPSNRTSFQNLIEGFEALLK

As a reminder, the IC50 is the concentration that gives 50% inhibition. Low values mean greater potency, high ones weaker potency. In the case of `CC[C@@H](Cn1ccc2cnc(Nc3cnn(C(C)C(=O)O)c3)nc21)C(C)C` (stereo partly drawn) [Compound 114, 2-(4-((7-((R)-2-ethyl-3-methylbutyl)-7H-pyrrolo[2,3-d]pyrimidin-2-yl)amino)-1H-pyrazol-1-yl)propanoic acid], the IC50 in test [1], in test [2], in test [3] and in test [4] was less than 100 nM each time.
Turning to `CC[C@H](Cn1ccc2cnc(Nc3cnn(CCC(=O)O)c3)nc21)C(C)C` [Compound 115, (S)-3-(4-((7-(2-ethyl-3-methylbutyl)-7H-pyrrolo[2,3-d]pyrimidin-2-yl)amino)-1H-pyrazol-1-yl)propanoic acid], the half-maximal inhibitory concentration (IC50) in test [1], in test [2], in test [3] and in test [4] was less than 100 nM throughout.
With `CC(C(=O)O)n1cc(Nc2ncc3ccn(C[C@H]4CC[C@H](O)CC4)c3n2)cn1` (some centres unmarked) [Compound 116, 2-(4-((7-(((1r,4r)-4-hydroxycyclohexyl)methyl)-7H-pyrrolo[2,3-d]pyrimidin-2-yl)amino)-1H-pyrazol-1-yl)propanoic acid], the IC50 in test [1], in test [2], in test [3] and in test [4] was less than 100 nM in each case.
Consider `O=C(O)CCn1cc(Nc2ncc3ccn(C[C@H]4CC[C@H](O)CC4)c3n2)cn1` [Compound 117, 3-(4-((7-(((1r,4r)-4-hydroxycyclohexyl)methyl)-7H-pyrrolo[2,3-d]pyrimidin-2-yl)amino)-1H-pyrazol-1-yl)propanoic acid], for which the 50% inhibitory concentration (IC50) in test [1], in test [2], in test [3] and in test [4] was less than 100 nM throughout.
In the case of `CCOC(=O)C(C)n1cc(Nc2ncc3ccn(C[C@@H](CC)C(C)C)c3n2)cn1` (stereo partly drawn) [Compound 118, ethyl 2-(4-((7-((S)-2-ethyl-3-methylbutyl)-7H-pyrrolo[2,3-d]pyrimidin-2-yl)amino)-1H-pyrazol-1-yl)propanoate], the IC50 in test [1], in test [2], in test [3] and in test [4] was less than 100 nM each time.
`CCOC(=O)CCn1cc(Nc2ncc3ccn(C[C@@H](CC)C(C)C)c3n2)cn1` [Compound 119, ethyl (S)-3-(4-((7-(2-ethyl-3-methylbutyl)-7H-pyrrolo[2,3-d]pyrimidin-2-yl)amino)-1H-pyrazol-1-yl)propanoate]: the IC50 in test [1], in test [2], in test [3] and in test [4] was less than 100 nM each time.
Regarding `CCOC(=O)C(C)n1cc(Nc2ncc3ccn(C[C@H]4CC[C@H](O)CC4)c3n2)cn1` (some centres unmarked) [Compound 120, ethyl 2-(4-((7-(((1r,4r)-4-hydroxycyclohexyl)methyl)-7H-pyrrolo[2,3-d]pyrimidin-2-yl)amino)-1H-pyrazol-1-yl)propanoate], the half-inhibitory concentration (IC50) in test [1], in test [2], in test [3] and in test [4] was less than 100 nM in each case.
On to `CCOC(=O)CCn1cc(Nc2ncc3ccn(C[C@H]4CC[C@H](O)CC4)c3n2)cn1` [Compound 121, ethyl 3-(4-((7-(((1r,4r)-4-hydroxycyclohexyl)methyl)-7H-pyrrolo[2,3-d]pyrimidin-2-yl)amino)-1H-pyrazol-1-yl)propanoate], for which the half-maximal inhibitory concentration (IC50) in test [1], in test [2], in test [3] and in test [4] was less than 100 nM in each case.
In the case of `CC(C)OC(=O)Cn1cc(Nc2ncc3ccn(C[C@H]4CC[C@H](O)CC4)c3n2)cn1` [Compound 122, isopropyl 2-(4-((7-(((1r,4r)-4-hydroxycyclohexyl)methyl)-7H-pyrrolo[2,3-d]pyrimidin-2-yl)amino)-1H-pyrazol-1-yl)acetate], the IC50 in test [1], in test [2], in test [3] and in test [4] was less than 100 nM throughout.
On to `CCOC(=O)Cn1cc(Nc2ncc3ccn(C[C@H]4CC[C@H](N)CC4)c3n2)cn1` [Compound 127, ethyl 2-(4-((7-(((1r,4r)-4-aminocyclohexyl)methyl)-7H-pyrrolo[2,3-d]pyrimidin-2-yl)amino)-1H-pyrazol-1-yl)acetate], for which the IC50 in test [1], in test [2], in test [3] and in test [4] was less than 100 nM throughout.
As to `CCOC(=O)Cn1cc(Nc2ncc3ccn(C[C@H]4CC[C@@H](OC)CC4)c3n2)cn1` [Compound 128, ethyl 2-(4-((7-(((1s,4s)-4-methoxycyclohexyl)methyl)-7H-pyrrolo[2,3-d]pyrimidin-2-yl)amino)-1H-pyrazol-1-yl)acetate], the IC50 lay in the range of 100 to 1000 nM in test [1], 1000 to 10000 nM in test [2], 100 to 1000 nM in test [3] and 100 to 1000 nM in test [4].
As to `CCOC(=O)Cn1cc(Nc2ncc3ccn(C[C@H]4CC[C@H](OC)CC4)c3n2)cn1` [Compound 129, ethyl 2-(4-((7-(((1r,4r)-4-methoxycyclohexyl)methyl)-7H-pyrrolo[2,3-d]pyrimidin-2-yl)amino)-1H-pyrazol-1-yl)acetate], the half-inhibitory concentration (IC50) in test [1] is less than 100 nM; in test [2], 100 to 1000 nM; in test [3] it was less than 100 nM; in test [4], less than 100 nM.
On to `CCOC(=O)Cn1cc(Nc2ncc3ccn(C[C@H]4CCC[C@@H](OC)C4)c3n2)cn1` [Compound 130, ethyl 2-(4-((7-(((1S,3R)-3-methoxycyclohexyl)methyl)-7H-pyrrolo[2,3-d]pyrimidin-2-yl)amino)-1H-pyrazol-1-yl)acetate], for which the concentration for half-maximal inhibition (IC50) in test [1], in test [2], in test [3] and in test [4] was less than 100 nM each time.
Take `CCOC(=O)Cn1cc(Nc2ncc3ccn(C[C@@H]4CCC[C@@H](OC)C4)c3n2)cn1` [Compound 131, ethyl 2-(4-((7-(((1R,3R)-3-methoxycyclohexyl)methyl)-7H-pyrrolo[2,3-d]pyrimidin-2-yl)amino)-1H-pyrazol-1-yl)acetate]: the half-maximal inhibitory concentration (IC50) in test [1] is less than 100 nM; in test [2] it was 100 to 1000 nM; in test [3], less than 100 nM; in test [4], less than 100 nM.
Take `CC[C@@H](Cn1ccc2cnc(Nc3cnn(CC(=O)OC(C)C)c3)nc21)C(C)C` [Compound 132, isopropyl (R)-2-(4-((7-(2-ethyl-3-methylbutyl)-7H-pyrrolo[2,3-d]pyrimidin-2-yl)amino)-1H-pyrazol-1-yl)acetate]: the IC50 in test [1], in test [2], in test [3] and in test [4] was less than 100 nM each time.
For `CCOC(=O)Cn1cc(Nc2ncc3ccn(C[C@H](CC)C(C)C)c3n2)cn1` [Compound 133, ethyl (R)-2-(4-((7-(2-ethyl-3-methylbutyl)-7H-pyrrolo[2,3-d]pyrimidin-2-yl)amino)-1H-pyrazol-1-yl)acetate], the IC50 in test [1], in test [2], in test [3] and in test [4] was less than 100 nM in each case.
As to `CC[C@H](Cn1ccc2cnc(Nc3cnn(CC(=O)OC(C)C)c3)nc21)C(C)C` [Compound 134, isopropyl (S)-2-(4-((7-(2-ethyl-3-methylbutyl)-7H-pyrrolo[2,3-d]pyrimidin-2-yl)amino)-1H-pyrazol-1-yl)acetate], the concentration for half-maximal inhibition (IC50) in test [1], in test [2], in test [3] and in test [4] was less than 100 nM throughout.
